According to PubChem BioAssay AID200 (DTP/NCI, 2004):
Several values for one entry are separate records, joined by “and”; a condition that tells them apart may be missing. Equal entries are not always repeated. Inconclusive results and toxic doses are left out. How the source made its calls: active means survival T/C of 150% or more; inactive means T/C below 125% in these data. Where a SMILES comes first, the peptide text is derived from it.

Test system: B6C3F1 mice, B16 melanoma ip, median survival T/C
Experiment: NCI In Vivo Anticancer Drug Screen. Data for tumor model B16 Melanoma (intraperitoneal) in B6C3F1 mice
Conditions: endpoint: median survival time, schedule: Q01DX009 (ip), higher = longer survival
Experimental: The antitumor activity of compounds was measured in mice bearing transplantable tumors. Survival or tumor size were measured and the results are expressed as the measurement made in the treated group (T) divided by the measurement made in the vehicle treated control group (C). The tumor model used in this assay is B16 Melanoma (intraperitoneal) in B6C3F1 mice

[1] = dose: 0.75 mg/kg/injection, vehicle: saline with Tween-80
[2] = dose: 1.5 mg/kg/injection, vehicle: saline with Tween-80
[3] = dose: 3.0 mg/kg/injection, vehicle: saline with Tween-80
[4] = dose: 6.0 mg/kg/injection, vehicle: saline with Tween-80
[5] = dose: 12.0 mg/kg/injection, vehicle: saline with Tween-80
[6] = dose: 50.0 mg/kg/injection, vehicle: saline with Tween-80
[7] = dose: 12.5 mg/kg/injection, vehicle: saline with Tween-80
[8] = dose: 25.0 mg/kg/injection, vehicle: saline with Tween-80
[9] = dose: 100.0 mg/kg/injection, vehicle: saline with Tween-80

Measured: T/C

N#CC(=C1SCS1)[N+](=O)[O-]
inactive: dose: 0.37 mg/kg/injection, vehicle: saline with Tween-80 108 % of control | [1] 100 % of control | [2] 105 % of control | [3] 119 % of control | [4] 118 % of control | [5] 107 % of control | dose: 375.0 micrograms/kg/injection, vehicle: saline with Tween-80 107 % of control | dose: 750.0 micrograms/kg/injection, vehicle: saline with Tween-80 104 % of control | dose: 1500.0 micrograms/kg/injection, vehicle: saline with Tween-80 113 % of control | dose: 3000.0 micrograms/kg/injection, vehicle: saline with Tween-80 108 % of control | dose: 6000.0 micrograms/kg/injection, vehicle: saline with Tween-80 101 % of control

CCC(C)C(O)C(C)C(=O)C(C)/C=C(\C)CC(C)C1OC(=O)C1CC (centres undefined)
inactive: dose: 0.25 mg/kg/injection, vehicle: saline + alcohol 104 % of control | dose: 0.5 mg/kg/injection, vehicle: saline + alcohol 98 % of control and 104 % of control | dose: 1.0 mg/kg/injection, vehicle: saline + alcohol 109 % of control and 100 % of control | dose: 2.0 mg/kg/injection, vehicle: saline + alcohol 98 % of control and 103 % of control

NCC(=O)NC(Cc1ccc(O)cc1)C(=O)NCC(=O)O (centres undefined) (HELM PEPTIDE1{G.[O=C(C(Cc1ccc(O)cc1)N[*:1])[*:2]].G}$$$$V2.0)
inactive: dose: 50.0 mg/kg/injection, vehicle: Klucel (hydroxypropylcellulose) (HPC) 96 % of control | dose: 100.0 mg/kg/injection, vehicle: Klucel (hydroxypropylcellulose) (HPC) 98 % of control | dose: 200.0 mg/kg/injection, vehicle: Klucel (hydroxypropylcellulose) (HPC) 106 % of control

CCCCCCCCCCCCCCCC[N+]1(C)CCN(SN2CC[N+](C)(CCCCCCCCCCCCCCCC)CC2)CC1
inactive: dose: 12.5 mg/kg/injection, vehicle: saline 96 % of control | dose: 25.0 mg/kg/injection, vehicle: saline 100 % of control | [6] 89 % of control

CCCCCCCCCCCCNCCCc1ccccc1
inactive: [7] 94 % of control | [8] 93 % of control

c1ccc2c(c1)[As]=c1ccccc1=[As]2 (centres undefined)
inactive: [1] 105 % of control | [2] 112 % of control and 103 % of control | [3] 107 % of control and 108 % of control | [4] 115 % of control and 98 % of control | [5] 122 % of control | dose: 24.0 mg/kg/injection, vehicle: saline with Tween-80 87 % of control

c1ccc(Cc2ccccc2)cc1
inactive: [6] 90 % of control | [9] 90 % of control | dose: 200.0 mg/kg/injection, vehicle: saline with Tween-80 95 % of control

COC(=Nc1ccccc1)SSC(C)C
inactive: dose: 0.78 mg/kg/injection, vehicle: saline with Tween-80 112 % of control | dose: 1.56 mg/kg/injection, vehicle: saline with Tween-80 116 % of control | dose: 3.12 mg/kg/injection, vehicle: saline with Tween-80 87 % of control | [7] 86 % of control and 104 % of control | [8] 87 % of control and 97 % of control | [6] 88 % of control | [9] 102 % of control

Cn1c(N)c(N=Nc2ccccc2Cl)c(=O)n(C)c1=O
inactive: dose: 6.25 mg/kg/injection, vehicle: saline with Tween-80 92 % of control | [7] 101 % of control | [8] 89 % of control | [6] 92 % of control and 104 % of control | [9] 104 % of control
